In patent US8648096B2, “N-methylaminomethyl isoindole compounds and compositions comprising and methods of using the same” (Celgene Corporation, priority 2006, dated 2014):

melting point	Structure (SMILES)
138 to 140 °C	CN(Cc1cccc2c1C(=O)N(C1CCC(=O)NC1=O)C2=O)C(=O)OC(C)(C)C (stereo not shown) [Example 5.1, [2-(2,6-dioxo-piperidin-3-yl)-1,3-dioxo-2,3-dihydro-1H-isoindol-4-ylmethyl]-methyl-carbamic acid T-butyl ester]
208 to 210 °C	Cc1cccc(NC(=O)N(C)Cc2cccc3c2CN(C2CCC(=O)NC2=O)C3=O)c1 (stereo not shown) [Example 5.29, 1-[2-(2,6-dioxo-piperidin-3-yl)-1-oxo-2,3-dihydro-1H-isoindol-4-ylmethyl]-1-methyl-3-M-tolyl-urea]
220 to 222 °C	CCCNC(=O)N(C)Cc1cccc2c1CN(C1CCC(=O)NC1=O)C2=O (stereo not shown) [Example 5.30, 1-[2-(2,6-dioxo-piperidin-3-yl)-1-oxo-2,3-dihydro-1H-isoindol-4-ylmethyl]-1-methyl-3-propyl-urea]
193 to 195 °C	CN(Cc1cccc2c1CN(C1CCC(=O)NC1=O)C2=O)C(=O)Nc1cccc(Cl)c1 (stereo not shown) [Example 5.32, 3-(3-chloro-phenyl)-1-[2-(2,6-dioxo-piperidin-3-yl)-1-oxo-2,3-dihydro-1H-isoindol-4-ylmethyl]-1-methyl-urea]
198 to 200 °C	CN(Cc1cccc2c1CN(C1CCC(=O)NC1=O)C2=O)C(=O)Nc1cccc(C(F)(F)F)c1 (stereo not shown) [Example 5.34, 1-[2-(2,6-dioxo-piperidin-3-yl)-1-oxo-2,3-dihydro-1H-isoindol-4-ylmethyl]-1-methyl-3-(3-trifluoromethyl-phenyl)-urea]
193 to 195 °C	CN(Cc1cccc2c1C(=O)N(C1CCC(=O)NC1=O)C2=O)C(=O)Nc1cccc(Cl)c1 (stereo not shown) [Example 5.35, 3-(3-chloro-phenyl)-1-[2-(2,6-dioxo-piperidin-3-yl)-1,3-dioxo-2,3-dihydro-1H-isoindol-4-ylmethyl]-1-methyl-urea]
188 to 190 °C	CN(Cc1cccc2c1C(=O)N(C1CCC(=O)NC1=O)C2=O)C(=O)NC(C)(C)C (stereo not shown) [Example 5.36, 3-tert-butyl-1-[2-(2,6-dioxo-piperidin-3-yl)-1,3-dioxo-2,3-dihydro-1H-isoindol-4-ylmethyl]-1-methyl-urea]
285 to 287 °C	CN(Cc1cccc2c1CN(C1CCC(=O)NC1=O)C2=O)C(=O)Nc1cc(Cl)cc(Cl)c1 (stereo not shown) [Example 5.37, 3-(3,5-dichloro-phenyl)-1-[2-(2,6-dioxo-piperidin-3-yl)-1-oxo-2,3-dihydro-1H-isoindol-4-ylmethyl]-1-methyl-urea]
202 to 204 °C	Cc1ccc(NC(=O)N(C)Cc2cccc3c2C(=O)N(C2CCC(=O)NC2=O)C3=O)cc1C (stereo not shown) [Example 5.40, 3-(3,4-dimethyl-phenyl)-1-[2-(2,6-dioxo-piperidin-3-yl)-1,3-dioxo-2,3-dihydro-1H-isoindol-4-ylmethyl]-1-methyl-urea]
292 to 294 °C	CN(Cc1cccc2c1CN(C1CCC(=O)NC1=O)C2=O)C(=O)Nc1cccc2ccccc12 (stereo not shown) [Example 5.41, 1-[2-(2,6-dioxo-piperidin-3-yl)-1-oxo-2,3-dihydro-1H-isoindol-4-ylmethyl]-1-methyl-3-naphthalen-1-yl-urea]
